Laboratory results published in ChEMBL document CHEMBL4680324, “Discovery of natural product ellagic acid as a potent CD73 and CD39 dual inhibitor” (Bioorg Med Chem Lett, 2021).

Legend:
5'-nucleotidase [1] = target: 5'-nucleotidase (Homo sapiens, UniProt P21589); test: Inhibition of human CD73
MDA-MB-231 = test: Cytotoxicity against human MDA-MB-231 cells expressing CD73 assessed as reduction in cell viability by CCK8 assay; type: functional, cell-based
5'-nucleotidase [2] = target: T1, 5'-nucleotidase (Mus musculus, UniProt Q61503); test: Inhibition of mouse CD73
T1 sequence (Q61503 whole entry): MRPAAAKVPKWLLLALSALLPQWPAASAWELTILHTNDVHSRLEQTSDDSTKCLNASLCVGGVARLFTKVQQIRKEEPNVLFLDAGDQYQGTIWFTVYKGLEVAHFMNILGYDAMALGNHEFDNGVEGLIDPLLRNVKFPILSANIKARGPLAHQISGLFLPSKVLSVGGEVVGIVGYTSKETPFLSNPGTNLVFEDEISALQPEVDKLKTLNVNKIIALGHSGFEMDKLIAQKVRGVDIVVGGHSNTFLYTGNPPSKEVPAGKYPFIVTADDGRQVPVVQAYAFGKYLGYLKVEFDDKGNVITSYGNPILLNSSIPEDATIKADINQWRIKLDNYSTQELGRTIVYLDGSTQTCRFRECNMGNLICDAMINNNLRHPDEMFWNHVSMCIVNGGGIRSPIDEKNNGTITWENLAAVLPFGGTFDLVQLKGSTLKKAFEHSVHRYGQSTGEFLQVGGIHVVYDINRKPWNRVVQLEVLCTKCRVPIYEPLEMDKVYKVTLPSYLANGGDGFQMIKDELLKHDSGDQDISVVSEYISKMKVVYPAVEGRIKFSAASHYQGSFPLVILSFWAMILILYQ

MIA PaCa-2 = test: Cytotoxicity against human MIA PaCa-2 cells expressing CD73 assessed as reduction in cell viability by CCK8 assay; type: functional, cell-based
[3] = target: T2, Ectonucleoside triphosphate diphosphohydrolase 1 (Mus musculus, UniProt P55772); test: Inhibition of mouse CD39
T2 sequence (P55772 whole entry): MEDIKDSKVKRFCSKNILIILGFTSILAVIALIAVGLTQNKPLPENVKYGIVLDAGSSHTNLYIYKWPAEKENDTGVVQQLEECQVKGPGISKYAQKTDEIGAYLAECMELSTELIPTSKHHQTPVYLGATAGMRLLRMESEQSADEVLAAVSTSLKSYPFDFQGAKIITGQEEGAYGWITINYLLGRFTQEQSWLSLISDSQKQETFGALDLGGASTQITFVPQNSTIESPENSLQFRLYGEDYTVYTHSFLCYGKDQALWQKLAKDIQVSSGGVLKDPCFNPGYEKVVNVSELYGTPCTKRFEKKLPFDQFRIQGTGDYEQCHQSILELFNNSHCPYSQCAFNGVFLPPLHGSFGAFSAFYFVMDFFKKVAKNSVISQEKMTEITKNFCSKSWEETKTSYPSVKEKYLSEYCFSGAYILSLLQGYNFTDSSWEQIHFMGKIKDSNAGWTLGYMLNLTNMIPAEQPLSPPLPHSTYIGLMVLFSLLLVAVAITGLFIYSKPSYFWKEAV

[4] = Selectivity ratio of IC50 for inhibition of human CD73 to IC50 for inhibition of mouse CD39
[5] = Selectivity ratio of IC50 for inhibition of human CD73 to IC50 for inhibition of mouse CD73

5'-nucleotidase (Homo sapiens, UniProt P21589), sequence (P21589 whole entry): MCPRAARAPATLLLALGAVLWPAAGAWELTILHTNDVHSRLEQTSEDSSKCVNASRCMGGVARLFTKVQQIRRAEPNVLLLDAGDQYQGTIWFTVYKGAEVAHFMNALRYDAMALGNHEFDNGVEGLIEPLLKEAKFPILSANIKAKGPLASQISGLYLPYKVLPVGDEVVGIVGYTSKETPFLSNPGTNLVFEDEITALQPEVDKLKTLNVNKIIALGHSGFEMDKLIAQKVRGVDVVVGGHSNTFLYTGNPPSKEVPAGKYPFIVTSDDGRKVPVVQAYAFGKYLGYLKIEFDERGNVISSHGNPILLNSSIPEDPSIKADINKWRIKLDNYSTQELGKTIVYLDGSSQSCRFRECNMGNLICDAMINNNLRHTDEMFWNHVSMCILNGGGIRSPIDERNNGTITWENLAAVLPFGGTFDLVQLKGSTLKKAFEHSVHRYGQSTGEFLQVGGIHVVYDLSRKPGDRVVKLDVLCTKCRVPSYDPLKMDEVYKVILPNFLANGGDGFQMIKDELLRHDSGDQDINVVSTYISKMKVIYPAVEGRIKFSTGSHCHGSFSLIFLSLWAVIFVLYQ

## C=C(C)[C@@H]1CC[C@]2(CO)CC[C@]3(C)[C@H](CC[C@@H]4[C@@]5(C)CC[C@H](O)C(C)(C)[C@@H]5CC[C@]43C)[C@@H]12 [BETULIN]
5'-nucleotidase [1]
  IC50: 22.7 µM
MDA-MB-231
  IC50: 24.6 µM
5'-nucleotidase [2]
  IC50: 50.3 µM
MIA PaCa-2
  IC50: 95 µM
[3]
  IC50: 49.8 µM

## Nc1ncnc2c1ncn2[C@@H]1O[C@H](COP(=O)(O)CP(=O)(O)O)[C@@H](O)[C@H]1O [PHOSPHOMETHYLPHOSPHONIC ACID ADENOSYL ESTER]
5'-nucleotidase [1]
  IC50: 3.97 µM
5'-nucleotidase [2]
  IC50: 4.63 µM
[3]
  IC50: > 100 µM

## Nc1ccn([C@@H]2O[C@H](CO)[C@@H](O)C2(F)F)c(=O)n1 [GEMCITABINE]
MDA-MB-231
  IC50: 1.15 µM
MIA PaCa-2
  IC50: 0.23 µM

## O=c1oc2c(O)c(O)cc3c(=O)oc4c(O)c(O)cc1c4c23 [ELLAGIC ACID]
5'-nucleotidase [1]
  IC50: 1.85 µM
[4]
  Ratio IC50: 3.7
MDA-MB-231
  IC50: 27.4 µM
[5]
  Ratio IC50: 46.5
5'-nucleotidase [2]
  IC50: 0.04 µM
MIA PaCa-2
  IC50: 150 µM
[3]
  IC50: 0.5 µM

## O=C(OC[C@H]1O[C@@H](OC(=O)c2cc(O)c(O)c(O)c2)[C@H](OC(=O)c2cc(O)c(O)c(O)c2)[C@@H](OC(=O)c2cc(O)c(O)c(O)c2)[C@@H]1OC(=O)c1cc(O)c(O)c(O)c1)c1cc(O)c(O)c(O)c1 [PENTAGALLOYL GLUCOSE]
5'-nucleotidase [1]
  IC50: 10.5 µM
MDA-MB-231
  IC50: 9.12 µM
5'-nucleotidase [2]
  IC50: > 100 µM
MIA PaCa-2
  IC50: 72.6 µM
[3]
  IC50: 1.56 µM
